Inconclusive results and toxic doses are left out. No stated cut-off is given here; in the data, active means T/C of 150% or more; inactive means T/C below 125%.
Tested on: L1210 leukemia ip in BDF1 mice, survival T/C
Assay: NCI In Vivo Anticancer Drug Screen. Data for tumor model L1210 Leukemia (intraperitoneal) in B6D2F1 (BDF1) mice
Conditions: endpoint: mean survival time, higher = longer survival
In short: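 Survival endpoint. Drug-treated group vs vehicle group, expressed as T divided by C. Tumor passaged by transplantation.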

[1] = dose: 12.5 mg/kg/injection, schedule: Q04DX003 (ip), vehicle: saline
[2] = dose: 25.0 mg/kg/injection, schedule: Q04DX003 (ip), vehicle: saline
[3] = dose: 100.0 mg/kg/injection, schedule: Q04DX003 (ip), vehicle: saline with Tween-80
[4] = dose: 200.0 mg/kg/injection, schedule: Q04DX003 (ip), vehicle: saline with Tween-80
[5] = dose: 400.0 mg/kg/injection, schedule: Q04DX003 (ip), vehicle: saline with Tween-80
[6] = dose: 100.0 mg/kg/injection, schedule: Q01DX001 (ip), vehicle: carboxymethylcellulose (CMC)
[7] = dose: 200.0 mg/kg/injection, schedule: Q01DX001 (ip), vehicle: carboxymethylcellulose (CMC)
[8] = dose: 400.0 mg/kg/injection, schedule: Q01DX001 (ip), vehicle: carboxymethylcellulose (CMC)
[9] = dose: 100.0 mg/kg/injection, schedule: Q01DX009 (ip), vehicle: saline with Tween-80
[10] = dose: 200.0 mg/kg/injection, schedule: Q01DX009 (ip), vehicle: saline with Tween-80
[11] = dose: 400.0 mg/kg/injection, schedule: Q01DX009 (ip), vehicle: saline with Tween-80

Measured: T/C

O=C(CBr)Nc1nccs1
inactive: dose: 3.12 mg/kg/injection, schedule: Q01DX009 (ip), vehicle: saline 98 % of control | dose: 6.25 mg/kg/injection, schedule: Q01DX009 (ip), vehicle: saline 93 % of control | dose: 12.5 mg/kg/injection, schedule: Q01DX009 (ip), vehicle: saline 104 % of control | [1] 98 % of control | [2] 94 % of control

ClCCOCCOCCOCCCl
inactive: dose: 75.0 mg/kg/injection, schedule: Q01DX009 (ip), vehicle: saline with Tween-80 97 % of control | [3] 97 % of control | dose: 150.0 mg/kg/injection, schedule: Q01DX009 (ip), vehicle: saline with Tween-80 93 % of control | [4] 106 % of control | dose: 300.0 mg/kg/injection, schedule: Q01DX009 (ip), vehicle: saline with Tween-80 93 % of control | [5] 102 % of control

CC(=O)[O][Sn]([CH3])([CH3])[CH3]
inactive: dose: 0.18 mg/kg/injection, schedule: Q01DX009 (ip), vehicle: Klucel (hydroxypropylcellulose) (HPC) 93 % of control | dose: 0.37 mg/kg/injection, schedule: Q01DX009 (ip), vehicle: Klucel (hydroxypropylcellulose) (HPC) 96 % of control | dose: 0.75 mg/kg/injection, schedule: Q01DX009 (ip), vehicle: Klucel (hydroxypropylcellulose) (HPC) 104 % of control

Cc1c(I)sc(I)c1I
inactive: [6] 94 % of control | [7] 94 % of control | [8] 100 % of control

c1ccc2[nH]c(CN3CCCCC3)cc2c1
inactive: dose: 12.5 mg/kg/injection, schedule: Q04DX003 (ip), vehicle: saline with Tween-80 103 % of control | dose: 25.0 mg/kg/injection, schedule: Q04DX003 (ip), vehicle: saline with Tween-80 98 % of control | dose: 50.0 mg/kg/injection, schedule: Q04DX003 (ip), vehicle: saline with Tween-80 98 % of control

CC(OC1CCCCO1)C1CCC2C3CCC4=CC(=O)CCC4(C)C3CCC12C (centres undefined)
inactive: dose: 50.0 mg/kg/injection, schedule: Q01DX001 (sc), vehicle: steriod suspending solution 103 % of control | dose: 100.0 mg/kg/injection, schedule: Q01DX001 (sc), vehicle: steriod suspending solution 105 % of control | dose: 200.0 mg/kg/injection, schedule: Q01DX001 (sc), vehicle: steriod suspending solution 103 % of control | dose: 400.0 mg/kg/injection, schedule: Q01DX001 (sc), vehicle: steriod suspending solution 111 % of control

Oc1c(Br)cc(Br)cc1C=Nc1ccc(Cl)cc1.Oc1c(Br)cc(Br)cc1C=Nc1ccc(Cl)cc1.[Co]
inactive: [3] 98 % of control | [4] 103 % of control | [5] 98 % of control

CN(C(=O)Sc1ccc([N+](=O)[O-])cc1)c1ccccc1
inactive: [3] 91 % of control | [4] 89 % of control | [5] 91 % of control

C[C@]12CC[C@H](O)CC1=CC[C@@H]1[C@@H]2CC[C@]2(C)c3nc4ccccc4cc3C[C@@H]12
inactive: dose: 15.6 mg/kg/injection, schedule: Q01DX Z (sc), vehicle: steriod suspending solution 94 % of control | dose: 31.3 mg/kg/injection, schedule: Q01DX Z (sc), vehicle: steriod suspending solution 93 % of control | dose: 62.5 mg/kg/injection, schedule: Q01DX Z (sc), vehicle: steriod suspending solution 94 % of control | dose: 100.0 mg/kg/injection, schedule: Q01DX009 (sc), vehicle: steriod suspending solution 94 % of control | dose: 100.0 mg/kg/injection, schedule: Q04DX003 (ip), vehicle: steriod suspending solution 98 % of control | dose: 125.0 mg/kg/injection, schedule: Q01DX Z (sc), vehicle: steriod suspending solution 96 % of control | dose: 200.0 mg/kg/injection, schedule: Q01DX009 (sc), vehicle: steriod suspending solution 92 % of control | dose: 200.0 mg/kg/injection, schedule: Q04DX003 (ip), vehicle: steriod suspending solution 107 % of control | dose: 250.0 mg/kg/injection, schedule: Q01DX Z (sc), vehicle: steriod suspending solution 104 % of control | dose: 400.0 mg/kg/injection, schedule: Q01DX009 (sc), vehicle: steriod suspending solution 89 % of control | dose: 400.0 mg/kg/injection, schedule: Q04DX003 (ip), vehicle: steriod suspending solution 106 % of control | dose: 500.0 mg/kg/injection, schedule: Q01DX Z (sc), vehicle: steriod suspending solution 94 % of control

NNc1ccccc1C(=O)O
inactive: dose: 50.0 mg/kg/injection, schedule: Q01DX001 (ip), vehicle: carboxymethylcellulose (CMC) 94 % of control | [6] 94 % of control | [7] 105 % of control | [8] 94 % of control

Oc1c(O)c(Cl)c(Cl)c(Cl)c1Cl
inactive: [1] 97 % of control | [2] 95 % of control | dose: 50.0 mg/kg/injection, schedule: Q04DX003 (ip), vehicle: saline 98 % of control

NC1C(O)CCCC1O (centres undefined)
inactive: dose: 100.0 mg/kg/injection, schedule: Q01DX001 (ip), vehicle: saline 107 % of control | dose: 200.0 mg/kg/injection, schedule: Q01DX001 (ip), vehicle: saline 102 % of control | dose: 400.0 mg/kg/injection, schedule: Q01DX001 (ip), vehicle: saline 102 % of control

CC(=O)Nc1ccc(C(C)(C)CC(=O)O)cc1[N+](=O)[O-]
inactive: dose: 50.0 mg/kg/injection, schedule: Q01DX009 (ip), vehicle: saline with Tween-80 90 % of control | [9] 87 % of control | [10] 87 % of control

Cc1cccc(C)c1NS(=O)(=O)c1ccc(Cl)cc1
inactive: dose: 100.0 mg/kg/injection, schedule: Q01DX009 (ip), vehicle: Klucel (hydroxypropylcellulose) (HPC) 107 % of control | dose: 100.0 mg/kg/injection, schedule: Q04DX003 (ip), vehicle: Klucel (hydroxypropylcellulose) (HPC) 101 % of control | dose: 200.0 mg/kg/injection, schedule: Q01DX009 (ip), vehicle: Klucel (hydroxypropylcellulose) (HPC) 88 % of control | dose: 200.0 mg/kg/injection, schedule: Q04DX003 (ip), vehicle: Klucel (hydroxypropylcellulose) (HPC) 102 % of control | dose: 400.0 mg/kg/injection, schedule: Q01DX009 (ip), vehicle: Klucel (hydroxypropylcellulose) (HPC) 95 % of control | dose: 400.0 mg/kg/injection, schedule: Q04DX003 (ip), vehicle: Klucel (hydroxypropylcellulose) (HPC) 98 % of control

N#Cc1c(N)sc2c1CCCC2
inactive: [9] 98 % of control | [3] 102 % of control | [10] 95 % of control | [4] 98 % of control | [11] 101 % of control | [5] 101 % of control

CCOC(=O)c1ccc(NC(=S)Nc2ccc(C(=O)OCC)cc2)cc1
inactive: [9] 95 % of control | [3] 89 % of control | [10] 93 % of control | [4] 87 % of control | [11] 95 % of control | [5] 94 % of control

From PubChem BioAssay AID248 (DTP/NCI, 2004)
